target: RAC-alpha serine/threonine-protein kinase (Homo sapiens, UniProt P31749); assay: Inhibition of recombinant AKT1 (104 to 480 end residues) (unknown origin) catalytic domain expressed in Sf21 cells using peptide substrate incubated for 1 hr in presence of ATP by caliper off-chip mobility shift assay; details: not given
Sequence (P31749 whole entry, the tested form may be a part): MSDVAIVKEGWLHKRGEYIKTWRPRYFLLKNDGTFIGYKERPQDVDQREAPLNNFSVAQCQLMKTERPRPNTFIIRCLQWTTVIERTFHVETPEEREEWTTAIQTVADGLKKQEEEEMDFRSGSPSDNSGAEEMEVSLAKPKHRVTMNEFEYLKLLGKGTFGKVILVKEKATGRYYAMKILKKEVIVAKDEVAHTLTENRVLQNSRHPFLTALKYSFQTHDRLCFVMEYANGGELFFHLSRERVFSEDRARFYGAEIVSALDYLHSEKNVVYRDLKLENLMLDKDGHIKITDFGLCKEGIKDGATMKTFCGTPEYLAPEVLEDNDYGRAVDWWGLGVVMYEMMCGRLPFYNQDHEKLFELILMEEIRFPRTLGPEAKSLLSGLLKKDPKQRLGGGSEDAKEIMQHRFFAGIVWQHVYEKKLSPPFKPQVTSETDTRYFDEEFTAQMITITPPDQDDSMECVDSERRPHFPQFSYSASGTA

Structure (SMILES) | IC50
CC(C)NC[C@@H](C(=O)N1C[C@H]2CC[C@@H](C1)N2c1ncnc2c1[C@H](C)OC(=O)N2)c1ccc(Cl)cc1 | 1.6 nM
CC(C)NC[C@@H](C(=O)N1CCN(c2ncnc3c2[C@H](C)OC(=O)N3)[C@H]2C[C@H]21)c1ccc(Cl)cc1 | 0.6 nM
Cc1c(CO)ncnc1N1CCN(C(=O)[C@H](CNC(C)C)c2ccc(Cl)cc2)CC1 | > 1000 nM
CC(C)NC[C@@H](C(=O)N1C[C@H]2CC[C@@H](C1)N2c1ncnc2c1N(C)CC(=O)N2)c1ccc(Cl)cc1 | 30 nM
CC(C)NC[C@@H](C(=O)N1CC2CC1CN2c1ncnc2c1[C@H](C)CC(=O)N2)c1ccc(Cl)cc1 (stereo partly specified) | 414 nM
CC(C)NC[C@@H](C(=O)N1CCN(c2cc[nH]c(=O)c2)CC1)c1ccc(Cl)cc1 | > 1000 nM
CC(C)NC[C@@H](C(=O)N1[C@@H]2CC[C@H]1CN(c1ncnc3c1[C@H](C)OC(=O)N3)C2)c1ccc(Cl)cc1 | 0.6 nM

system: LNCaP; assay: Antiproliferative activity against human LNcap assessed as reduction in cell viability incubated for 72 hrs by Cell Titer Glo luminescent assay; details: not given

Structure (SMILES) | IC50
CC(C)NC[C@@H](C(=O)N1CC2CCC(C1)N2c1ncnc2c1[C@H](C)CC(=O)N2)c1ccc(Cl)cc1 | 446 nM
CC(C)NC[C@@H](C(=O)N1C2CCC1CN(c1ncnc3c1N(C)CC(=O)N3)C2)c1ccc(Cl)cc1.O=CO | 279 nM
CC(C)NC[C@@H](C(=O)N1C2CCC1CN(c1ncnc3c1[C@H](C)CC(=O)N3)C2)c1ccc(Cl)cc1 | 79 nM
CC(C)NC[C@@H](C(=O)N1C[C@H]2CC[C@@H](C1)N2c1ncnc2c1[C@H](C)OC(=O)N2)c1ccc(Cl)cc1 | 236 nM
CC(C)NC[C@@H](C(=O)N1CCN(c2ncnc3c2[C@H](C)OC(=O)N3)[C@H]2C[C@H]21)c1ccc(Cl)cc1 | 201 nM
CC(C)NC[C@@H](C(=O)N1[C@@H]2CC[C@H]1CN(c1ncnc3c1[C@H](C)OC(=O)N3)C2)c1ccc(Cl)cc1 | 84 nM

system: not listed separately; assay: AUC (0 to infinity) in overnight fasted ICR mouse at 10 mg/kg, po measured upto 24 hrs by UPLC-MS/MS analysis; assay type: ADME, organism-based; parameters: dose 10 mg/kg, time < 24 hrs, route po; details: in vivo

Structure (SMILES) | AUC(0-inf)
CC(C)NC[C@@H](C(=O)N1CC2CCC(C1)N2c1ncnc2c1[C@H](C)CC(=O)N2)c1ccc(Cl)cc1 | 1480 ng·h/mL
CC(C)NC[C@@H](C(=O)N1C2CCC1CN(c1ncnc3c1N(C)CC(=O)N3)C2)c1ccc(Cl)cc1.O=CO | 2290 ng·h/mL
CC(C)NC[C@@H](C(=O)N1C2CCC1CN(c1ncnc3c1[C@H](C)CC(=O)N3)C2)c1ccc(Cl)cc1 | 911 ng·h/mL
CC(C)NC[C@@H](C(=O)N1C[C@H]2CC[C@@H](C1)N2c1ncnc2c1[C@H](C)OC(=O)N2)c1ccc(Cl)cc1 | 3030 ng·h/mL
CC(C)NC[C@@H](C(=O)N1CCN(c2ncnc3c2[C@H](C)OC(=O)N3)[C@H]2C[C@H]21)c1ccc(Cl)cc1 | 2580 ng·h/mL
CC(C)NC[C@@H](C(=O)N1[C@@H]2CC[C@H]1CN(c1ncnc3c1[C@H](C)OC(=O)N3)C2)c1ccc(Cl)cc1 | 727 ng·h/mL

system: not listed separately; assay: Oral bioavailability in overnight fasted ICR mouse at 10 mg/kg measured upto 24 hrs by UPLC-MS/MS analysis; assay type: ADME, organism-based; details: in vivo

Structure (SMILES) | bioavailability
CC(C)NC[C@@H](C(=O)N1CCN(c2ncnc3c2[C@H](C)OC(=O)N3)[C@H]2C[C@H]21)c1ccc(Cl)cc1 | 26.5%

system: LNCaP; assay: In vivo antitumor activity against human LNCap cells xenografted in NCG mouse assessed as tumor growth inhibition at 50 mg/kg administered once daily for 18 to 21 days relative to control; assay type: functional; details: time 18-21 day, read-out: TGI

Structure (SMILES) | inhibition in vivo at 50 mg/kg
CC(C)NC[C@@H](C(=O)N1C2CCC1CN(c1ncnc3c1N(C)CC(=O)N3)C2)c1ccc(Cl)cc1.O=CO | 34.5%
CC(C)NC[C@@H](C(=O)N1C[C@H]2CC[C@@H](C1)N2c1ncnc2c1[C@H](C)OC(=O)N2)c1ccc(Cl)cc1 | 28%
CC(C)NC[C@@H](C(=O)N1CCN(c2ncnc3c2[C@H](C)OC(=O)N3)[C@H]2C[C@H]21)c1ccc(Cl)cc1 | 94.1%

system: not listed separately; assay: cells; details: Homo sapiens, COLO 704, 72 h

Structure (SMILES) | IC50
CC(C)NC[C@@H](C(=O)N1CCN(c2ncnc3c2[C@H](C)C[C@H]3O)CC1)c1ccc(Cl)cc1 [IPATASERTIB] | 945 nM

system: ZR-75-1; assay: cells; details: Homo sapiens, ZR-75-1, 72 h
Description: Antiproliferative activity against human ZR-75-1 habouring PTEN deletion mutant assessed as reduction in cell viability incubated for 72 hrs by Cell Titer Glo luminescent assay

Structure (SMILES) | IC50
CC(C)NC[C@@H](C(=O)N1CCN(c2ncnc3c2[C@H](C)C[C@H]3O)CC1)c1ccc(Cl)cc1 [IPATASERTIB] | 1320 nM

system: PC-3; assay: cells; details: Homo sapiens, PC-3, 72 h
Description: Antiproliferative activity against human PC-3 habouring PTEN deletion and PIK3CA mutation/amplication assessed as reduction in cell viability incubated for 72 hrs by Cell Titer Glo luminescent assay

Structure (SMILES) | IC50
CC(C)NC[C@@H](C(=O)N1CCN(c2ncnc3c2[C@H](C)C[C@H]3O)CC1)c1ccc(Cl)cc1 [IPATASERTIB] | 3540 nM

system: CAL-51; assay: cells; details: Homo sapiens, CAL-51, 72 h
Description: Antiproliferative activity against human CAL-51 habouring PTEN deletion and PIK3CA mutation/amplication assessed as reduction in cell viability incubated for 72 hrs by Cell Titer Glo luminescent assay

Structure (SMILES) | IC50
CC(C)NC[C@@H](C(=O)N1CCN(c2ncnc3c2[C@H](C)C[C@H]3O)CC1)c1ccc(Cl)cc1 [IPATASERTIB] | 265 nM

system: T47D; assay: cells; details: Homo sapiens, 72 h
Description: Antiproliferative activity against human T47D habouring PIK3CA mutation/amplication assessed as reduction in cell viability incubated for 72 hrs by Cell Titer Glo luminescent assay

Structure (SMILES) | IC50
CC(C)NC[C@@H](C(=O)N1CCN(c2ncnc3c2[C@H](C)C[C@H]3O)CC1)c1ccc(Cl)cc1 [IPATASERTIB] | 328 nM

system: TOV21G; assay: cells; details: Homo sapiens, 72 h
Description: Antiproliferative activity against human TOV-21G habouring PTEN deletion and PIK3CA mutation/amplication assessed as reduction in cell viability incubated for 72 hrs by Cell Titer Glo luminescent assay

Structure (SMILES) | IC50
CC(C)NC[C@@H](C(=O)N1CCN(c2ncnc3c2[C@H](C)C[C@H]3O)CC1)c1ccc(Cl)cc1 [IPATASERTIB] | 715 nM

system: C-33-A; assay: cells; details: Homo sapiens, 72 h
Description: Antiproliferative activity against human C-33-A habouring PTEN deletion mutant assessed as reduction in cell viability incubated for 72 hrs by Cell Titer Glo luminescent assay

Structure (SMILES) | IC50
CC(C)NC[C@@H](C(=O)N1CCN(c2ncnc3c2[C@H](C)C[C@H]3O)CC1)c1ccc(Cl)cc1 [IPATASERTIB] | 726 nM

system: RL95-2; assay: cells; details: Homo sapiens, RL95-2, 72 h
Description: Antiproliferative activity against human RL95-2 habouring PTEN deletion mutant assessed as reduction in cell viability incubated for 72 hrs by Cell Titer Glo luminescent assay

Structure (SMILES) | IC50
CC(C)NC[C@@H](C(=O)N1CCN(c2ncnc3c2[C@H](C)C[C@H]3O)CC1)c1ccc(Cl)cc1 [IPATASERTIB] | 331 nM

Reference: ChEMBL document CHEMBL5154942, “Discovery of Clinical Candidate NTQ1062 as a Potent and Bioavailable Akt Inhibitor for the Treatment of Human Tumors” (J Med Chem, 2022)
